Measurements as given in patent publication US9061352B2, “Dry powder formulations and methods for treating pulmonary diseases” (priority 2010, dated 2015).

Experiments:
Assay type in all cases: physicochemical
[1] = Heat of solution in HBSS buffer; details: for ΔH (kJ/mol), Average / ΔH (kcal/mol), Average / heat of solution ΔH: HBSS buffer; for ΔH (kJ/mol), Average / ΔH (kcal/mol), Average: per mol Ca for all powders except leucine (mol Leu); for ΔH (kJ/mol), Average / ΔH (kcal/mol), Average / Q (cal), Average / ΔT (deg. C.), Average: experiment #1; for Q (cal), Average / ΔT (deg. C.), Average: dissolution in HBSS buffer
[2] = Volume median diameter (x50) and dispersibility ratios by HELOS/RODOS laser diffraction
Protocol: Volume median diameter (×50 or Dv50), which may also be referred to as volume median geometric diameter (VMGD), was determined using a laser diffraction technique. The equipment consisted of a HELOS diffractometer and a RODOS dry powder disperser (Sympatec, Inc., Princeton, N.J.). The RODOS disperser applies a shear force to a sample of particles, controlled by the regulator pressure (typically set at 1.0 bar) of the incoming compressed dry air. The pressure settings may be varied to vary the amount of energy used to disperse the powder. For example, the regulator pressure may be varied from 0.2 bar to 4.0 bar; and the orifice ring pressure may be varied from 5.00 mbar to 115.00 mbar. Powder sample is dispensed from a microspatula into the RODOS funnel. The dispersed particles travel through a laser beam where the resulting diffracted light pattern produced is collected, typically using an R1 lens, by a series of detectors. The ensemble diffraction pattern is then translated into a volume-based particle size distribution using the Fraunhofer diffraction model, on the basis that smaller particles diffract light at larger angles. Using this method geometric standard deviation (GSD) for the volume mean geometric diameter was also determined.

[3] = Fine particle fraction by two-stage collapsed Andersen Cascade Impactor (ACI-2); details: spray dried from 70% ethanol, 50 g/L
[4] = Capsule emitted powder mass (CEPM) from dry powder inhaler; details: for average CEPM, % of capsule fill weight: 9.2 Joules (60 L/min for 2 L), high resistance RS-01
Excerpt: (§1) Volume median diameter can also be measured using a method where the powder is emitted from a dry powder inhaler device. The equipment consisted of a Spraytec laser diffraction particle size system (Malvern, Worcestershire, UK), “Spraytec”. Powder formulations were filled into size 3 HPMC capsules (Capsugel V-Caps) by hand with the fill weight measured gravimetrically using an analytical balance (Mettler Tolerdo XS205). A capsule based passive dry powder inhalers (RS-01 Model 7, High resistance Plastiape S.p.A.) was used which had specific resistance of 0.036 kPa^1/2 LPM^−1. Flow rate and inhaled volume were set using a timer controlled solenoid valve with flow control valve (TPK2000, Copley Scientific). Capsules were placed in the dry powder inhaler, punctured and the inhaler sealed to the inlet of the laser diffraction particle sizer. The steady air flow rate through the system was initiated using the TPK2000 and the particle size distribution was measured via the Spraytec at 1 kHz for at least 2 seconds and up to the total inhalation duration. Particle size distribution parameters calculated included the volume median diameter (Dv50) and the geometric standard deviation (GSD) and the fine particle fraction (FPF) of particles less than 5 micrometers in diameter. At the completion of the inhalation duration, the dry powder inhaler was opened, the capsule removed and re-weighed to calculate the mass of powder that had been emitted from the capsule during the inhalation duration (capsule emitted powder mass or CEPM).
A measure of the emission properties of the powders was determined by using the information obtained from the Andersen Cascade Impactor tests. The filled capsule weight was recorded at the beginning of the run and the final capsule weight was recorded after the completion of the run. The difference in weight represented the amount of powder emitted from the capsule (CEPM or capsule emitted powder mass). The emitted dose was calculated by dividing the amount of powder emitted from the capsule by the total initial particle mass in the capsule. While the standard CEPM was measured at 60 L/min, it was also measured at 15 L/min, 20 L/min, or 30 L/min.
Powder formulations were filled into size 3 HPMC capsules (Capsugel V-Caps) by hand with the fill weight measured gravimetrically using an analytical balance (Mettler Tolerdo XS205). […] Two capsule based passive dry powder inhalers (RS-01 Model 7, Low resistance Plastiape S.p.A. and RS-01 Model 7, High resistance Plastiape S.p.A.) were used which had specific resistances of 0.020 and 0.036 kPa1/2/LPM which span the typical range of dry powder inhaler resistance. Flow rate and inhaled volume were set using a timer controlled solenoid valve with flow control valve (TPK2000, Copley Scientific). Capsules were placed in the appropriate dry powder inhaler, punctured and the inhaler sealed to the inlet of the laser diffraction particle sizer (Spraytec, Malvern). The steady air flow rate through the system was initiated using the TPK2000 and the particle size distribution was measured via the Spraytec at 1 kHz for the durations at least 2 seconds and up to the total inhalation duration. Particle size distribution parameters calculated included the volume median diameter (Dv50) and the geometric standard deviation (GSD) and the fine particle fraction (FPF) of particles less than 5 micrometers in diameter. At the completion of the inhalation duration, the dry powder inhaler was opened, the capsule removed and re-weighed to calculate the mass of powder that had been emitted from the capsule during the inhalation duration. At each testing condition, 5 replicate capsules were measured and the results of Dv50, FPF and capsule emitted powder mass (CEPM) were averaged. […]

[5] = Emitted geometric particle size from dry powder inhaler by Spraytec (Dv50, GSD, FPF<5 μm); details: for average Dv50: 9.2 Joules; for Dv50: measured lower energies
Excerpt: as §1
The previous description of the use of the Spraytec was for what is described as its “closed bench configuration”. Alternatively, the Spraytec can be used in its “open bench configuration”. In the open bench configuration, capsules were placed in the dry powder inhaler, punctured and the inhaler sealed inside a cylinder. The cylinder was connected to a positive pressure air source with steady air flow through the system again measured with a mass flow meter and its duration controlled with a timer controlled solenoid valve. The exit of the dry powder inhaler was exposed to room pressure and the resulting aerosol jet passed through the laser of the diffraction particle sizer (Spraytec) in its open bench configuration before being captured by a vacuum extractor. The steady air flow rate through the system was initiated using the solenoid valve and the particle size distribution was measured via the Spraytec at 1 kHz for the duration of the single inhalation maneuver with a minimum of 2 seconds, as in the closed bench configuration. When data are reported in the examples as being measured by the Spraytec, they are from the closed bench configuration unless otherwise noted.
The volume median diameter (Dv50) of the powder after it emitted from a dry powder inhaler, which may also be referred to as volume median geometric diameter (VMGD), was determined using a laser diffraction technique via the Spraytec diffractometer (Malvern, Inc., Worcestershire, UK). Powder was filled into size 3 capsules (V-Caps, Capsugel) and placed in a capsule based dry powder inhaler (RS01 Model 7 High resistance, Plastiape, Italy), or DPI, which was connected with an airtight seal to the inhaler adapter of the Spraytec. A steady airflow rate was drawn through the DPI typically at 60 L/min for a set duration, typically of 2 seconds controlled by a timer controlled solenoid (TPK2000, Copley, Scientific, UK). Alternatively, the airflow rate drawn through the DPI was sometimes run at 15 L/min, 20 L/min, or 30 L/min. The outlet aerosol then passed perpendicularly through the laser beam as an internal flow. The resulting geometric particle size distribution of the aerosol was calculated from the software based on the measured scatter pattern on the photodetectors with samples typically taken at 1000 Hz for the duration of the inhalation. The Dv50, GSD, FPF<5.0 μm measured were then averaged over the duration of the inhalation. […]

[6] = RS.01.HR, fill 25 mg, 15 LPM, 4 s, 0.29 J
[7] = RS.01.HR, fill 25 mg, 20 LPM, 3 s, 0.51 J
[8] = RS.01.HR, fill 25 mg, 30 LPM, 2 s, 1.15 J
[9] = RS.01.HR, fill 25 mg, 60 LPM, 2 s, 9.18 J
[10] = RS.01.HR, fill 40 mg, 15 LPM, 4 s, 0.29 J
[11] = RS.01.HR, fill 40 mg, 20 LPM, 3 s, 0.51 J
[12] = RS.01.HR, fill 40 mg, 30 LPM, 2 s, 1.15 J
[13] = RS.01.HR, fill 40 mg, 60 LPM, 2 s, 9.18 J
[14] = RS.01.LR, fill 25 mg, 60 LPM, 2 s, 2.85 J
[15] = RS.01.LR, fill 40 mg, 60 LPM, 2 s, 2.85 J
[16] = all measured energies below 9.2 Joules, 25 and 40 mg fill

Question: With `O.O.[Ca+2].[Cl-].[Cl-]` [CaCl2•2H2O] as the compound, how does the “ΔH (kJ/mol), Average” value [1] read?
Answer: -50.5 kJ/mol

Question: And the “ΔH (kcal/mol), Average” value [1]?
Answer: -12.1 kcal/mol

Question: What about the “Q (cal), Average” value [1] of the same compound?
Answer: 2.93 cal

Question: And the “ΔT (deg. C.), Average” value [1]?
Answer: 0.024 deg. C.

Question: For `CC(C)C[C@H](N)C(=O)O` [Leucine], which “ΔH (kJ/mol), Average” value [1] is on record?
Answer: -6 kJ/mol

Question: What about the “ΔH (kcal/mol), Average” value [1] of the same compound?
Answer: -1.5 kcal/mol

Question: And the “Q (cal), Average” value [1]?
Answer: 0.37 cal

Question: What about the “ΔT (deg. C.), Average” value [1] of the same compound?
Answer: 0.003 deg. C.

Question: For `[Cl-].[Cl-].[Mg+2]` [Pure magnesium chloride, magnesium chloride], which “median volume particle size” value ([2]; spray dried from 70% ethanol, 50 g/L) is on record?
Answer: 4 microns

Question: What about the median particle size ([2]; spray dried from D.I. water, 20 g/L) of the same compound?
Answer: 21 microns

Question: And the “fine particle fraction less than 5.6 microns” value [3]?
Answer: 19%

Question: With `O.O.[Ca+2].[Cl-].[Cl-]` [raw calcium chloride dihydrate, calcium chloride dihydrate] as the compound, how does the “heat of solution ΔH” value ([1]; first experiment) read?
Answer: -12.1 kcal/mol

Question: And the “heat of solution ΔH” value ([1]; second experiment)?
Answer: -8.4 kcal/mol

Question: What does the source list for “albuterol sulfate [Micronized Albuterol]”?
Answer: average CEPM, % of capsule fill weight ([4]; 25 mg fill): 93%; average CEPM, % of capsule fill weight ([4]; 40 mg fill): 84%; Mean CEPM [4, 6]: 3.12 mg; Mean CEPM [4, 7]: 5.00 mg; Mean CEPM [4, 8]: 7.08 mg; Mean CEPM [4, 9]: 23.18 mg; Mean CEPM [4, 10]: 2.43 mg; Mean CEPM [4, 11]: 4.97 mg; Mean CEPM [4, 12]: 8.55 mg; Mean CEPM [4, 13]: 33.40 mg; Mean CEPM [4, 14]: 15.28 mg; Mean CEPM [4, 15]: 18.88 mg; CEPM [4, 16]: below 10 mg; CEPM, % of capsule fill weight [4, 16]: < 30%; average Dv50 ([5]; 25 mg fill): 1.8 μm; Dv50 ([5]; 25 mg fill): 3.9 μm; average Dv50 ([5]; 40 mg fill): 1.6 μm; Dv50 ([5]; 40 mg fill): 3.1 μm; Mean Dv(50) (μm) [5, 6]: 16.76 μm; Mean FPF, % <5 μm [5, 6]: 13.00%; Mean Dv(50) (μm) [5, 7]: 8.40 μm; Mean FPF, % <5 μm [5, 7]: 32.10%; Mean Dv(50) (μm) [5, 8]: 3.86 μm; Mean FPF, % <5 μm [5, 8]: 59.44%; Mean Dv(50) (μm) [5, 9]: 1.77 μm; Mean FPF, % <5 μm [5, 9]: 81.65%; Mean Dv(50) (μm) [5, 10]: 17.63 μm; Mean FPF, % <5 μm [5, 10]: 10.73%; Mean Dv(50) (μm) [5, 11]: 6.34 μm; Mean FPF, % <5 μm [5, 11]: 42.24%; Mean Dv(50) (μm) [5, 12]: 3.13 μm; Mean FPF, % <5 μm [5, 12]: 67.18%; Mean Dv(50) (μm) [5, 13]: 1.60 μm; Mean FPF, % <5 μm [5, 13]: 84.30%; Mean Dv(50) (μm) [5, 14]: 2.57 μm; Mean FPF, % <5 μm [5, 14]: 75.01%; Mean Dv(50) (μm) [5, 15]: 2.62 μm; Mean FPF, % <5 μm [5, 15]: 73.98%
